Results: US20110288154A1, “RNA Interference Mediated Inhibition of Epithelial Sodium Channel (ENaC) Gene Expression Using Short Interfering Nucleic Acid (siNA)” (MERCK & CO., INC., priority 2008, published 2011)
[invAb] = inverted abasic unit; m = 2'-O-methyl; r = 2'-OH (RNA); f = 2'-fluoro

Tested on: ENaCα mRNA
Experiment: Screening of ENaCα siNAs in human A549 cells (quantitative RT-PCR)
Format: cell-based
Set-up: Percent Reduction of the ENaCα mRNA relative to a non-targeting control siNA (NTC): concentration or dose not given beside the values
Settings: for Avg ENaCα Expression / Mean (level of ENaCα expression normalized to the level of GAPDH) / Percent Reduction of the ENaCα mRNA relative to a non-targeting control siNA (NTC) / Avg GAPDH Expression: human A549 cells, n = 3; for Avg ENaCα Expression: 25 nM siNA with Lipofectamine 2000, harvested 24 hours post-transfection; for Mean (level of ENaCα expression normalized to the level of GAPDH) / Percent Reduction of the ENaCα mRNA relative to a non-targeting control siNA (NTC) / Avg GAPDH Expression: 24 hours post-transfection; for Avg GAPDH Expression: housekeeping gene used for normalisation; for IC50 / Human % KD (efficacy of ENaCα mRNA knockdown): human cell line; for IC50: dose response, read-out: Human IC50 (potency of ENaCα mRNA knockdown); for Human % KD (efficacy of ENaCα mRNA knockdown): summary
Description: siNA constructs (Table 1b) may be tested for efficacy in reducing ENaC RNA expression in, for example, A549 human lung carcinoma cells. A549 (human; ATCC cat# CCL-185) cells were cultured at 37° C. in the presence of 5% CO2 and grown in Ham's F12K medium with 2 mM L-glutamine adjusted to contain 1.5 g/L sodium bicarbonate and supplemented with fetal bovine serum at a final concentration of 10% and 100 U/mL penicillin. The A549 cells were plated approximately 24 hours before transfection in 96-well plates at 7,500 cells/well, 100 μl/well. After 24 hours complexes containing siNA and Lipofectamine 2000 (Invitrogen) were created as follows: a solution of Lipofectamine 2000 in OPTI-MEM was prepared containing Lipofectamine 2000 at a final concentration of 14 μg/ml. In parallel, solutions of the siNAs were prepared in OPTI-MEM at a final concentration of 150 nM. After both solutions were incubated at 20° C. for 20 minutes an equal volume of the siNA solutions and the Lipofectamine 2000 solution were added together for each of the siNAs. The resultant solution has the siNAs at a final concentration of 75 nM and Lipofectamine 2000 at a final concentration of 7 μg/ml. This solution was incubated at 20° C. for 20 minutes. After incubation 50 μl of the solution were added to each of the wells (in triplicate). The final concentration of siNA in each well was 25 nM and the final concentration of Lipofectamine 2000 in each well was 2.33 μg/ml. […] Dose response curves were determined in a similar manner with each concentration being done in triplicate and maintaining a constant amount of Lipofectamine 2000 in each transfection.
RNA was extracted from 96-well plates using the Invitek Invisorb RNA Cell HTS 96 Kit/C (Cat# 70619000) with a slightly modified protocol. The details of the protocol for isolating RNA from each plate are described as follows:
1) Aspirate media with rake 2) Add 150 ul/well Lysis buffer 3) Place on plate shaker for 1 minute 4) Place DNA binding plate on top of 0.5 ml collection plate 5) Pipette 190 ul up and down twice and add to DNA binding plate 6) Cover plate 7) Centrifuge plates 4 minutes at 4000 RPM 8) Discard DNA binding plate 9) Place the RNA binding plate on top of 2 ml collection plate 10) Add 150 ul/well of Binding Buffer R to 0.5 ml collection plate 11) Move contents of 0.5 ml collection plate to RNA binding plate 12) Let incubate for 1 minute 13) Centrifuge plates 4 minutes at 4000 RPM 14) Add 600 ul/well of Wash Buffer R1 to RNA binding plate 15) Centrifuge plates 4 minutes at 4000 RPM 16) Dump wash buffer from 2 ml collection plate 17) Add 400 ul/well of Wash Buffer R2 to RNA binding plate 18) Centrifuge plates 4 minutes at 4000 RPM 19) Add 400 ul/well of Wash Buffer R2 to RNA binding plate 20) Centrifuge plates 10 minutes at 4000 RPM 21) Dump wash buffer from 2 ml collection plate 22) Centrifuge plates 3 minutes at 4000 RPM 23) Discard 2 ml collection plate and place RNA binding plate on to microtiter plate 24) Add 100 ul/well of elution buffer to RNA binding plate 25) Incubate for 2 minutes 26) Seal plate 27) Centrifuge plates 3 minutes at 4000 RPM 28) Discard RNA binding plate 29) Cover microtiter plate for storage in −80 freezer
A series of probes and primers were used to detect the various mRNA transcripts of the genes of ENaCa and GAPDH in mouse, rat, and human cell lines. The assays were performed on an ABI 7500 instrument, according to the manufacturer's instructions. Within each experiment, the baseline was set in the exponential phase of the amplification curve, and based on the intersection point of the baselines with the amplification curve, a Ct value was assigned by the instrument. This Ct value was then assigned a QTY value based on the Standard Curve. The standard curve in the various experiments herein used 1 ng to 300 ng of RNA extracted from the same cell line used for the experimental transfections. […]

B GccAuccGccuGGuGuGcu TTB / AGCAcAccAGGcGGAuGGcUU (sense GCCAUCCGCCUGGUGUGCUTT; antisense AGCACACCAGGCGGAUGGCUU; siRNA; sense: DNA at AGT, 2'-fluoro at CU, [invAb] at 5' end, 3' end, backbone not given here; antisense: sugars from the 5' end rrrmfmffmmmfmmrfmmfmm, backbone not given here) [Site 310]
Avg ENaCα Expression: 68.10 | Mean (level of ENaCα expression normalized to the level of GAPDH): 1.57 | Percent Reduction of the ENaCα mRNA relative to a non-targeting control siNA (NTC): −1.0% | Avg GAPDH Expression: 45.78

B GcuGuGccuAcAucuucuA TTB / UAGAAGAuGuAGGcAcAGcUU (sense GCUGUGCCUACAUCUUCUATT; antisense UAGAAGAUGUAGGCACAGCUU; siRNA; B caps on sense ends, letter-case modifications not given here, further chemistry not given here) [Site 1388]
Avg ENaCα Expression: 36.49 | Mean (level of ENaCα expression normalized to the level of GAPDH): 0.30 | Percent Reduction of the ENaCα mRNA relative to a non-targeting control siNA (NTC): 54.1% | Avg GAPDH Expression: 120.24 | IC50: 0.19 nM | Human % KD (efficacy of ENaCα mRNA knockdown): 55-80%

B GuGGcuGuGccuAcAucuu TTB / AAGAuGuAGGcAcAGccAcUU (sense GUGGCUGUGCCUACAUCUUTT; antisense AAGAUGUAGGCACAGCCACUU; siRNA; sense: DNA at AGT, 2'-fluoro at CU, [invAb] at 5' end, 3' end, backbone not given here; antisense: sugars from the 5' end rrrmfmfmmmfmfmmffmfmm, backbone not given here) [Site 1385]
Avg ENaCα Expression: 90.81 | Mean (level of ENaCα expression normalized to the level of GAPDH): 0.81 | Percent Reduction of the ENaCα mRNA relative to a non-targeting control siNA (NTC): −23.6% | Avg GAPDH Expression: 119.04

B GuGuGGcuGuGccuAcAuc TTB / GAUGuAGGcAcAGccAcAcUU (sense GUGUGGCUGUGCCUACAUCTT; antisense GAUGUAGGCACAGCCACACUU; siRNA; B caps on sense ends, letter-case modifications not given here, further chemistry not given here) [Site 1383]
Avg ENaCα Expression: 40.44 | Mean (level of ENaCα expression normalized to the level of GAPDH): 0.78 | Percent Reduction of the ENaCα mRNA relative to a non-targeting control siNA (NTC): 49.8% | Avg GAPDH Expression: 52.36 | IC50: 0.41 nM | Human % KD (efficacy of ENaCα mRNA knockdown): 50-70%

B GuccAAccuGGGcAGccAG TTB / CUGGcuGcccAGGuuGGAcUU (sense GUCCAACCUGGGCAGCCAGTT; antisense CUGGCUGCCCAGGUUGGACUU; siRNA; sense: DNA at AGT, 2'-fluoro at CU, [invAb] at 5' end, 3' end, backbone not given here; antisense: sugars from the 5' end rmmmffmfffmmmffmmmfmm, backbone not given here) [Site 1743]
Avg ENaCα Expression: 68.82 | Mean (level of ENaCα expression normalized to the level of GAPDH): 0.57 | Percent Reduction of the ENaCα mRNA relative to a non-targeting control siNA (NTC): 13.9% | Avg GAPDH Expression: 121.24

B cAGAGcAGAAuGAcuucAu TTB / AUGAAGucAuucuGcucuGUU (sense CAGAGCAGAAUGACUUCAUTT; antisense AUGAAGUCAUUCUGCUCUGUU; siRNA; sense: DNA at AGT, 2'-fluoro at CU, [invAb] at 5' end, 3' end, backbone not given here; antisense: sugars from the 5' end rrrmmmffmffffmffffmmm, backbone not given here) [Site 1100]
Avg ENaCα Expression: 66.11 | Mean (level of ENaCα expression normalized to the level of GAPDH): 1.14 | Percent Reduction of the ENaCα mRNA relative to a non-targeting control siNA (NTC): 26.8% | Avg GAPDH Expression: 64.16

B cAcAAccGcAuGAAGAcGG TTB / CCGucuucAuGcGGuuGuGUU (chain 1 CACAACCGCAUGAAGACGGTT; chain 2 CCGUCUUCAUGCGGUUGUGUU; siRNA; chain 1: DNA at AGT, 2'-fluoro at CU, [invAb] at 5' end, 3' end, backbone not given here; chain 2: sugars from the 5' end rrrfffffmfmfmmffmfmmm, backbone not given here) [Site 334]
Avg ENaCα Expression: 58.30 | Mean (level of ENaCα expression normalized to the level of GAPDH): 1.49 | Percent Reduction of the ENaCα mRNA relative to a non-targeting control siNA (NTC): 4.5% | Avg GAPDH Expression: 42.86

B cAcuccuGcuuccAGGAGA TTB / UCUccuGGAAGcAGGAGuGUU (sense CACUCCUGCUUCCAGGAGATT; antisense UCUCCUGGAAGCAGGAGUGUU; siRNA; sense: DNA at AGT, 2'-fluoro at CU, [invAb] at 5' end, 3' end, backbone not given here; antisense: sugars from the 5' end rrrfffmmmmmfmmmmmfmmm, backbone not given here) [Site 1351]
Avg ENaCα Expression: 68.14 | Mean (level of ENaCα expression normalized to the level of GAPDH): 1.12 | Percent Reduction of the ENaCα mRNA relative to a non-targeting control siNA (NTC): 28.2% | Avg GAPDH Expression: 64.22

B cGcAuGAAGAcGGccuucu TTB / AGAAGGccGucuucAuGcGUU (chain 1 CGCAUGAAGACGGCCUUCUTT; chain 2 AGAAGGCCGUCUUCAUGCGUU; siRNA; chain 1: DNA at AGT, 2'-fluoro at CU, [invAb] at 5' end, 3' end, backbone not given here; chain 2: sugars from the 5' end rrrmmmffmfffffmfmfmmm, backbone not given here) [Site 340]
Avg ENaCα Expression: 84.94 | Mean (level of ENaCα expression normalized to the level of GAPDH): 1.40 | Percent Reduction of the ENaCα mRNA relative to a non-targeting control siNA (NTC): 9.9% | Avg GAPDH Expression: 63.09

B ccAuccGccuGGuGuGcuc TTB / GAGcAcAccAGGcGGAuGGUU (chain 1 CCAUCCGCCUGGUGUGCUCTT; chain 2 GAGCACACCAGGCGGAUGGUU; siRNA; chain 1: DNA at AGT, 2'-fluoro at CU, [invAb] at 5' end, 3' end, backbone not given here; chain 2: sugars from the 5' end rrrfmfmffmmmfmmmfmmmm, backbone not given here) [Site 311]
Avg ENaCα Expression: 65.43 | Mean (level of ENaCα expression normalized to the level of GAPDH): 1.29 | Percent Reduction of the ENaCα mRNA relative to a non-targeting control siNA (NTC): 17.0% | Avg GAPDH Expression: 53.29

B ccGcAuGAAGAcGGccuuc TTB / GAAGGccGucuucAuGcGGUU (chain 1 CCGCAUGAAGACGGCCUUCTT; chain 2 GAAGGCCGUCUUCAUGCGGUU; siRNA; chain 1: DNA at AGT, 2'-fluoro at CU, [invAb] at 5' end, 3' end, backbone not given here; chain 2: sugars from the 5' end rrrmmffmfffffmfmfmmmm, backbone not given here) [Site 339]
Avg ENaCα Expression: 69.05 | Mean (level of ENaCα expression normalized to the level of GAPDH): 1.13 | Percent Reduction of the ENaCα mRNA relative to a non-targeting control siNA (NTC): 27.1% | Avg GAPDH Expression: 62.02
